Experimental data taken from patent US8455475B2 (Gruenenthal GmbH, priority 2009, dated 2013).
Structures can show the parent of a compound that is named as a salt.

Assays:
[1] = molecular target: T1, rat B1R (bradykinin receptor 1) (Rattus norvegicus, UniProt P97583); assay: FLIPR Ca2+ assay (Fluo-4) on CHO K1 cells stably transfected with the B1R gene of the rat (rB1R cells): % inhibition at 10 μM / IC50, agonist Des-Arg9-bradykinin; format: cell-based; details: for inhibition at 10 µM: CHO-K1, rat B1R
T1 construct: expressed in transfected cells; host or cells: CHO K1 cells
T1 sequence (P97583 1-337): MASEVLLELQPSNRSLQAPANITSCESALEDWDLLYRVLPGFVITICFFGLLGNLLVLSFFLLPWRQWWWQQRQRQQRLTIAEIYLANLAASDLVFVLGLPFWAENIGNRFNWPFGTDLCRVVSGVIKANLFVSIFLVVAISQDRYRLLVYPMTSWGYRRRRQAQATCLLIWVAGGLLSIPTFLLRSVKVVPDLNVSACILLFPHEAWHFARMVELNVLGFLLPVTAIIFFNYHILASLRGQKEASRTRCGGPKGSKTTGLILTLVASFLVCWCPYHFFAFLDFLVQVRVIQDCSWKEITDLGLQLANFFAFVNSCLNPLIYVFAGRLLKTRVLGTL
Outline: (§1)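 Using a two-addition FLIPR protocol, compound (10 μM for % values; concentration series for IC50) was preincubated 10–20 min with Fluo-4-loaded B1R-expressing CHO K1 cells before EC80 agonist challenge. Suppression of Ca2+ inflow, read as peak fluorescence, is expressed relative to maximum achievable inhibition; duplicate/triplicate, ≥2 independent experiments.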

[2] = molecular target: T2, human B1R (bradykinin receptor 1) (Homo sapiens, UniProt P46663); assay: FLIPR Ca2+ assay (Fluo-4) on CHO K1 cells stably transfected with the human B1R gene (hB1R cells): % inhibition at 10 μM / IC50, agonist Lys-Des-Arg9-bradykinin; format: cell-based; details: for inhibition at 10 µM: CHO-K1, human B1R
T2 construct: expressed in transfected cells; host or cells: CHO K1 cells
T2 sequence (P46663 1-353): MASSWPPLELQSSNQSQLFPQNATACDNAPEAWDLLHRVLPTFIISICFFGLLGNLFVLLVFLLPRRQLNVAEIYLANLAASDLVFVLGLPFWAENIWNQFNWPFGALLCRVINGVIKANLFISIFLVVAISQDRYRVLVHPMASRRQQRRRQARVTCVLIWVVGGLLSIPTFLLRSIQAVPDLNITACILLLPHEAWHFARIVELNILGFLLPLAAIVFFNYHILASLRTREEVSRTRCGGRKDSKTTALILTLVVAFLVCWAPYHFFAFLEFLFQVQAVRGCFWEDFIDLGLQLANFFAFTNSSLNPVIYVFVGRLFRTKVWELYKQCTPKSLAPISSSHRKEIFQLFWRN
Outline: as §1

| Compound | inhibition at 10 µM [1] [%] | inhibition at 10 µM [2] [%] | % Inhibition (rat B1R) at 10 μM ([1]; rat B1R) [%] | % Inhibition (human B1R) at 10 μM ([2]; human B1R) [%] |
| --- | --- | --- | --- | --- |
| CC1(C)Cc2ccc(C(=O)N3CCC4(CC3)CCN(c3ccncc3)CC4)cc2C1NC(=O)c1cccc(Cl)c1Cl (stereo not drawn) [IND_CC-282, 2,3-Dichloro-N-[2,2-dimethyl-6-(9-pyridin-4-yl-3,9-diazaspiro[5.5]undecane-3-carbonyl)-1,3-dihydro-inden-1-yl]-benzamide] | 107 | 69 |  |  |
| CN(C(=O)c1ccc(Cl)cc1Cl)C1CCc2ccc(C(=O)N3CCC4(CC3)CCN(c3ccncc3)CC4)cc21 (stereo not drawn) [Ind_CC-018, 2,4-dichloro-N-methyl-N-[6-(9-pyridin-4-yl-3,9-diazaspiro[5.5]undecane-3-carbonyl)-2,3-dihydro-1H-inden-1-yl]-benzamide] | 98 | 98 |  |  |
| COc1cc(C)c(C(=O)NC2CCc3ccc(C(=O)N4CCC5(CCN(Cc6ccncc6)CC5)CC4)cc32)c(C)c1 (stereo not drawn) [Ind_CC-092, 4-methoxy-2,6-dimethyl-N-[6-[9-(pyridin-4-yl-methyl)-3,9-diazaspiro[5.5]undecane-3-carbonyl]-2,3-dihydro-1H-inden-1-yl]-benzamide] | 101 | 78 |  |  |
| O=C(NC1CCc2ccc(C(=O)N3CCC4(CC3)CCN(c3ccncc3)C4)cc21)c1cc(F)c(F)cc1Cl (stereo not drawn) [IND_CC-229, 2-Chloro-4,5-difluoro-N-[6-(2-pyridin-4-yl-2,8-diazaspiro[4.5]decane-8-carbonyl)-2,3-dihydro-1H-inden-1-yl]-benzamide] | 102 | 100 |  |  |
| Cc1cccc(C)c1C(=O)NC1CC(C)(C)c2ccc(C(=O)N3CCC4(CC3)CCN(c3ccncc3)CC4)cc21 (stereo not drawn) [IND_CC-309, N-[3,3-Dimethyl-6-(3-pyridin-4-yl-3,9-diazaspiro[5.5]undecane-9-carbonyl)-1,2-dihydro-inden-1-yl]-2,6-dimethyl-benzamide] | 104 | 97 |  |  |
| O=C(Nc1ccc(Cl)c(Cl)c1)NC1CCc2ccc(C(=O)N3CCC4(CC3)CCN(c3ccncc3)C4)cc21 (stereo not drawn) [Ind_CC-047] |  |  | 60 | 94 |
| COc1ccc(C(=O)NC2CC(C)(C)c3ccc(C(=O)N4CCC5(CC4)CCN(c4ccncc4)CC5)cc32)c(Cl)c1 (stereo not drawn) [IND_CC-246, 2-Chloro-N-[3,3-dimethyl-6-(3-pyridin-4-yl-3,9-diazaspiro[5.5]undecane-9-carbonyl)-1,2-dihydro-inden-1-yl]-4-methoxy-benzamide] | 100 | 99 |  |  |
| CN(C(=O)Nc1ccc(Cl)c(Cl)c1)C1CCc2ccc(C(=O)N3CCC4(CC3)CCN(c3ccncc3)CC4)cc21 (stereo not drawn) [Ind_CC-022, 3-(3,4-dichlorophenyl)-1-methyl-1-[6-(9-pyridin-4-yl-3,9-diazaspiro[5.5]undecane-3-carbonyl)-2,3-dihydro-1H-inden-1-yl]-urea] | 75 | 91 |  |  |
| O=C(c1ccc2c(c1)C(N(C(=O)c1ccccc1Cl)C1CC1)CC2)N1CCC2(CC1)CCN(c1cccnc1)CC2 (stereo not drawn) [Ind_CC-114, 2-chloro-N-cyclopropyl-N-[6-(9-pyridin-3-yl-3,9-diazaspiro[5.5]undecane-3-carbonyl)-2,3-dihydro-1H-inden-1-yl]-benzamide] | 101 | 99 |  |  |
| O=C(NC1CCc2ccc(C(=O)N3CCC4(CCN(c5ccncc5)CC4)C3)cc21)c1c(F)cccc1Cl (stereo not drawn) [IND_CC-280, 2-Chloro-6-fluoro-N-[6-(8-pyridin-4-yl-2,8-diazaspiro[4.5]decane-2-carbonyl)-2,3-dihydro-1H-inden-1-yl]-benzamide] | 108 | 100 |  |  |
| CN(C(=O)c1ccccc1Cl)C1CCc2ccc(C(=O)N3CCC4(CC3)CCN(c3ccncc3)C4)cc21 (stereo not drawn) [Ind_CC-112, 2-chloro-N-methyl-N-[6-(2-pyridin-4-yl-2,8-diazaspiro[4.5]decane-8-carbonyl)-2,3-dihydro-1H-inden-1-yl]-benzamide] | 104 | 100 |  |  |
| O=C(NC1CCc2ccc(C(=O)N3CCC4(CC3)CCN(c3ccncc3)C4)cc21)c1cccc(C(F)(F)F)c1Cl (stereo not drawn) [IND_CC-233, 2-Chloro-N-[6-(2-pyridin-4-yl-2,8-diazaspiro[4.5]decane-8-carbonyl)-2,3-dihydro-1H-inden-1-yl]-3-(trifluoromethyl)-benzamide] | 98 | 86 |  |  |
| CN(C(=O)c1cccc(Cl)c1Cl)C1CCc2ccc(C(=O)N3CCC4(CC3)CCN(c3ccncc3)CC4)cc21 (stereo not drawn) [IND_CC-265, 2,3-Dichloro-N-methyl-N-[6-(9-pyridin-4-yl-3,9-diazaspiro[5.5]undecane-3-carbonyl)-2,3-dihydro-1H-inden-1-yl]-benzamide] | 107 | 88 |  |  |
| CC1(C)Cc2ccc(C(=O)N3CCC4(CC3)CCN(c3ccncc3)CC4)cc2C1NS(=O)(=O)CCc1ccccc1Cl (stereo not drawn) [IND_CC-242, 2-(2-Chlorophenyl)-N-[2,2-dimethyl-6-(9-pyridin-4-yl-3,9-diazaspiro[5.5]-undecane-3-carbonyl)-1,3-dihydro-inden-1-yl]-ethanesulfonic acid amide] | 101 | 94 |  |  |
| CC1(C)Cc2ccc(C(=O)N3CCC4(CC3)CCN(c3ccncc3)CC4)cc2C1NC(=O)c1cc(F)ccc1Cl (stereo not drawn) [IND_CC-223, 2-Chloro-N-[2,2-dimethyl-6-(9-pyridin-4-yl-3,9-diazaspiro[5.5]undecane-3-carbonyl)-1,3-dihydro-inden-1-yl]-5-fluoro-benzamide] | 105 | 97 |  |  |
| N#Cc1ccccc1CN1CCC2(CC1)CCN(C(=O)c1ccc3c(c1)C(NC(=O)c1ccccc1Cl)CC3)CC2 (stereo not drawn) [IND_CC-535, 2-Chloro-N-[6-[9-[(2-cyano-phenyl)-methyl]-3,9-diazaspiro[5.5]undecane-3-carbonyl]-2,3-dihydro-1H-inden-1-yl]-benzamide] | 90 | 49 |  |  |

Other lines, results leading:

| inhibition at 10 µM [1] [%] | inhibition at 10 µM [2] [%] | % Inhibition (rat B1R) at 10 μM ([1]; rat B1R) [%] | % Inhibition (human B1R) at 10 μM ([2]; human B1R) [%] | Compound |
| --- | --- | --- | --- | --- |
| 89 | 100 |  |  | O=C(c1ccc2c(c1)CC[C@H]2NS(=O)(=O)c1ccccc1Cl)N1CCC2(CCN(c3ccncc3)CC2)C1 [Example H-173, 2-Chloro-N-[(1R)-5-(8-pyridin-4-yl-3,8-diazaspiro[4.5]decane-3-carbonyl)-2,3-dihydro-1H-inden-1-yl]-benzenesulfonic acid amide] |
| 102 | 100 |  |  | Cc1cc(N2CCC3(CCN(C(=O)c4ccc5c(c4)[C@H](NC(=O)c4ccccc4Cl)CC5)C3)CC2)ccn1 [Example H-112, 2-Chloro-N-[(1R)-6-[8-(2-methyl-pyridin-4-yl)-3,8-diazaspiro[4.5]decane-3-carbonyl]-2,3-dihydro-1H-inden-1-yl]-benzamide] |
| 105 | 100 |  |  | O=C(N[C@H]1CCc2ccc(C(=O)N3CCC4(CCN(c5ccncc5)CC4)C3)cc21)c1ccccc1Cl [Example H-20, 2-chloro-N-[(1S)-6-(8-pyridin-4-yl-3,8-diazaspiro[4.5]decane-3-carbonyl)-2,3-dihydro-1H-indecn-1-yl]-benzamide] |
| 12 | 54 |  |  | O=C(c1cccc2c1CC[C@H]2N1Cc2cccc(Cl)c2C1=O)N1CCC2(CCN(c3ccncc3)CC2)C1 [Example H-169, 7-Chloro-2-[(1R)-4-(8-pyridin-4-yl-3,8-diazaspiro[4.5]decane-3-carbonyl)-2,3-dihydro-1H-inden-1-yl]-2,3-dihydro-isoindol-1-one] |
| 69 | 34 |  |  | O=C(NC1CCc2ccc(C(=O)N3CCC4(CCC(N5CC(F)(F)C5)CC4)CC3)cc21)c1ccccc1Cl (stereo not drawn) [Example H-07, 2-chloro-N-[6-[9-(3,3-difluoro-azetidin-1-yl)-3-azaspiro[5.5]undecane-3-carbonyl]-2,3-dihydro-1H-inden-1-yl]-benzamide] |
| 98 | 31 |  |  | COc1ccc(N2CCC3(CCN(C(=O)c4ccc5c(c4)[C@H](NC(=O)c4ccccc4Cl)CC5)C3)CC2)cc1 [Example H-139, 2-Chloro-N-[(1R)-6-[8-(4-methoxyphenyl)-3,8-diazaspiro[4.5]decane-3-carbonyl]-2,3-dihydro-1H-inden-1-yl]-benzamide] |
| 98 | 98 |  |  | O=C(NC1CCc2ccc(C(=O)N3CCC4(CCN(c5ccc6cnccc6c5)CC4)C3)cc21)c1ccccc1Cl (stereo not drawn) [Example H-50, 2-chloro-N-[6-(8-isoquinolin-6-yl-3,8-diazaspiro[4.5]decane-3-carbonyl)-2,3-dihydro-1H-inden-1-yl]-benzamide] |
| 102 | 100 |  |  | Cc1cc(N2CCC3(CCN(C(=O)c4ccc5c(c4)[C@H](NC(=O)c4ccccc4Cl)CC5)C3)CC2)cc(C)n1 [Example H-111, 2-Chloro-N-[(1R)-6-[8-(2,6-dimethyl-pyridin-4-yl)-3,8-diazaspiro[4.5]decane-3-carbonyl]-2,3-dihydro-1H-inden-1-yl]-benzamide hydrochloride] |
